This is an account of results in ChEMBL document CHEMBL4837181 (Eur J Med Chem, 2020).

The target in one data set is T1, Cytochrome P450 2C8 (Homo sapiens, UniProt P10632).
T1 sequence (P10632 whole entry): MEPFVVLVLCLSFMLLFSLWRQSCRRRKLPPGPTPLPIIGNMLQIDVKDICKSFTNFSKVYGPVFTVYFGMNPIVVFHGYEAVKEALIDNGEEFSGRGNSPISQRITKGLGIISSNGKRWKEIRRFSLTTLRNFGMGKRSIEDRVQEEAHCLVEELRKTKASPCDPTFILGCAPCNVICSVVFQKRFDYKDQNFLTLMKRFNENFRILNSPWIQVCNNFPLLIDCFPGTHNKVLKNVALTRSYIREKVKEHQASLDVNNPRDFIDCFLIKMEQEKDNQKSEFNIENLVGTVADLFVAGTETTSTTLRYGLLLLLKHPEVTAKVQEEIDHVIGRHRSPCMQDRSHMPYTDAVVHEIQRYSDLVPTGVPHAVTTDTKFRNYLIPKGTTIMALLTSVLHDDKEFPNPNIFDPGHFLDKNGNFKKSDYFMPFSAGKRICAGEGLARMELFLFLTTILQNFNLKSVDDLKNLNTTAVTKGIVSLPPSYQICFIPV
Briefly: Inhibition of CYP2C8 in human hepatocytes. In kind it is ADME, cell-based, Hepatocyte.

The nature of data set [1]: Lipophilicity, logD of compound. It counts as physicochemical. To be noted: octanol/water.
Data set [2] in a line: Chemical stability of compound in PBS buffer assessed as compound remaining at pH 7.4 at 5 uM measured after 24 hrs by LC-MS/MS analysis. It counts as physicochemical. To be noted: read-out: Stabilty.
Data set [3] can be described thus: Drug metabolism in CD1 mouse hepatocytes assessed as unmetabolized compound at 10 uM incubated for 120 mins by UPLC-QTOF-PDA analysis. To be noted: read-out: Drug metabolism. It counts as ADME, cell-based, Hepatocyte.
Data set [4] has as its target T2, Solute carrier family 22 member 6 (Homo sapiens, UniProt Q4U2R8).
T2 sequence (Q4U2R8 whole entry): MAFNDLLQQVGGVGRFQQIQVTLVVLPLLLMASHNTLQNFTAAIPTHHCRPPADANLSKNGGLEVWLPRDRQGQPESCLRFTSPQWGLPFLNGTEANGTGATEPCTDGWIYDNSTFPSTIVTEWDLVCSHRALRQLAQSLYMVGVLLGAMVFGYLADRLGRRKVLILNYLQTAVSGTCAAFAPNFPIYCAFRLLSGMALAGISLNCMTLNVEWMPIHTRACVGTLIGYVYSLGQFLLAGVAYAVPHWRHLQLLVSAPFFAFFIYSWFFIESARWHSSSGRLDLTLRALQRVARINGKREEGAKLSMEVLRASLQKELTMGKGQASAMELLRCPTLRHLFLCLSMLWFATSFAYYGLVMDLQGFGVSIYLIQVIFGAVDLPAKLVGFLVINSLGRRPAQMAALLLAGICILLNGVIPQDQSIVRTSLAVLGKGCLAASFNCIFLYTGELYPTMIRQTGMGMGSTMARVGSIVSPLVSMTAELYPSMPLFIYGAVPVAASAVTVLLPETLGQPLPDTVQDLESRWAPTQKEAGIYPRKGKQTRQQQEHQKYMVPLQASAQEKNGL
Briefly: Inhibition of OAT1 (unknown origin) expressed in HEK293 cells. In kind it is cell-based.

A short description of data set [5]: Solubility in simulated gastric fluid. It counts as physicochemical.
A short description of data set [6]: Toxicity in rat assessed as change in behavioral parameter. To be noted: in vivo.
The nature of data set [7]: AUC (0 to 12 hrs) in male rat at 150 mg/kg, po BID measured on day 28. Set-up: time < 12 hr, route oral, dose 150 mg/kg. It counts as ADME, organism-based. To be noted: in vivo.
The nature of data set [8]: Half life in male cynomolgus monkey at 75 mg/kg, po BID measured on day 8. It counts as ADME, organism-based, Macaca fascicularis. To be noted: in vivo.
In data set [9] the target is T3, Broad substrate specificity ATP-binding cassette transporter ABCG2 (Homo sapiens, UniProt Q9UNQ0).
T3 sequence (Q9UNQ0 whole entry): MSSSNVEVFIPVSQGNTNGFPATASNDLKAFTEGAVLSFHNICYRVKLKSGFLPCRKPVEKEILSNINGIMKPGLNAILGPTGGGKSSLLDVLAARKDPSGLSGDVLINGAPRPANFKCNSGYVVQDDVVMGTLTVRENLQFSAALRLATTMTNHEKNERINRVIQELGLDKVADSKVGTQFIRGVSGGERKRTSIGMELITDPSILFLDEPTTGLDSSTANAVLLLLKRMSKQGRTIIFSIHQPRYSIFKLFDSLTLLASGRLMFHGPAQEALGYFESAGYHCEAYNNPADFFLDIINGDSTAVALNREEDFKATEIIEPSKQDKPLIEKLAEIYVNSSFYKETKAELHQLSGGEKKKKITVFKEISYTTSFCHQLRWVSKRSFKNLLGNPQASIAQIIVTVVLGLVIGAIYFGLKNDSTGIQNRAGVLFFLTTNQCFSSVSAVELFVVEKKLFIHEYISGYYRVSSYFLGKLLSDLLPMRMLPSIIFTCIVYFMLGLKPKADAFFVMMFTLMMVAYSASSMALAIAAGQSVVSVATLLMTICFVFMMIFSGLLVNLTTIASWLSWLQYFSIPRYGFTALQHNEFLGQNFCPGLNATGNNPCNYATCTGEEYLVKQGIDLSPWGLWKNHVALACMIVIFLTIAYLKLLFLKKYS
Description: Inhibition of BCRP in human Caco-2 cells. It counts as cell-based.

A short description of data set [10]: AUC (0 to 24 hrs) in female cynomolgus monkey at 75 mg/kg, po BID measured on day 8. In kind it is ADME, organism-based, Macaca fascicularis. Set-up: time < 24 hr, route oral, dose 75 mg/kg. To be noted: in vivo.
The nature of data set [11]: Drug metabolism in rats assessed as ratio of indoximod to parent compound at 20 to 900 mg/kg, po administered as single dose. To be noted: rat, in vivo, dose 20-900 mg/kg. In kind it is ADME, organism-based.
A short description of data set [12]: Stability in rat plasma assessed as parent compound remaining measured after 2 hrs by LC-MS/MS analysis. To be noted: read-out: Stabilty. It counts as ADME, cell-free.
Data set [13] is described as follows: Drug metabolism in mouse assessed as formation of M9 metabolite at 20 to 900 mg/kg. It counts as ADME, organism-based. To be noted: in vivo, dose 20-900 mg/kg.
Data set [14] in a line: Toxicity in po dosed female rat administered twice a day. It counts as organism-based. To be noted: in vivo.
Data set [15] can be described thus: Solubility in water. In kind it is physicochemical.
The nature of data set [16]: Tmax in male cynomolgus monkey at 75 mg/kg, po measured on day 1. It counts as ADME, organism-based, Macaca fascicularis. To be noted: in vivo.
Data set [17] is described as follows: Half life in female cynomolgus monkey at 375 mg/kg, po BID measured on day 8. In kind it is ADME, organism-based, Macaca fascicularis. To be noted: in vivo.
The nature of data set [18]: Apparent oral clearance in male cynomolgus monkey at 150 mg/kg, po BID measured on day 8. It counts as ADME, organism-based, Macaca fascicularis. To be noted: in vivo.
Data set [19] is described as follows: Half life in male cynomolgus monkey at 75 mg/kg, po measured on day 1. It counts as ADME, organism-based, Macaca fascicularis. To be noted: in vivo.
The nature of data set [20]: Volume of distribution in female cynomolgus monkey at 15 mg/kg, iv measured on day 1. To be noted: in vivo. It counts as ADME, organism-based, Macaca fascicularis.
A short description of data set [21]: AUC (0 to 12 hrs) in human up to 1200 mg administered bid. It counts as ADME. Set-up: time < 12 hr, dose <=1200.
The nature of data set [22]: AUC (0 to 24 hrs) in female cynomolgus monkey at 15 mg/kg, iv measured on day 1. More on the design: time < 24 hr, route intravenous, dose 15 mg/kg. To be noted: in vivo. It counts as ADME, organism-based, Macaca fascicularis.

A value given as a limit tells only on which side of the number the result lay.

Broadly, the IC50 is the concentration that inhibits the measured activity by half. The term logD denotes the decadic logarithm of the distribution of all forms, ionised or not, between an organic phase and buffer at a given pH. By solubility is commonly meant the dissolved amount per volume that the medium holds. One may read the AUC as the area under the concentration-time curve, a measure of exposure. The term half-life denotes the time in which the quantity being followed falls by half. The term Tmax denotes the time at which the peak concentration occurs. The CL/F is clearance divided by bioavailability, as obtained after extravascular dosing. One may read the Vd as the apparent volume that relates the amount in the body to the concentration in plasma or blood. One may read the AUC(0-t) as the area under the concentration-time curve up to a stated or last time point.

As for `CCOC(=O)[C@@H](Cc1cn(C)c2ccccc12)NC(=O)[C@@H](N)CC(C)C.Cl`, the IC50 (at Cytochrome P450 2C8; in [4]) was > 50 µM throughout. In addition, the logD in data set [1] came to 2.3. Moreover, the remaining at 24 h, 5 µM in data set [2] was 48%. Further, in [3], the remaining at 2 h, 10 µM worked out at 0.3%. In addition, the solubility in [5] was 17.1 mg/mL; in [15] it was 19.8 mg/mL. Further, in data set [6], the Activity entry is reported as “Non-Toxic”. For the same compound, in data set [7], the AUC at 12 h was 1410 µM·h. The compound further gave a half-life in data set [8] of 108 min. In addition, the “inhibition (INH)” value in data set [9] was “Not Active”. In data set [10], this compound came in with an AUC at 24 h of 0.0356 µM·h. Also, in data set [11], the Ratio is reported as > 39000. In data set [12], the remaining at 2 h was determined as 0%. Also, the Drug metabolism entry in data set [13] is reported as “Metabolite_Detected”. Further, the TD10 in data set [14] turned out to be 150 mg/kg.
Consider `Cn1cc(C[C@@H](N)C(=O)O)c2ccccc21` [INDOXIMOD], for which the Tmax in [16] was found to be 2 h. Besides, the half-life in data set [17] is 228 min; in data set [19], 162 min. Further, the apparent clearance CL/F in data set [18] amounted to 13.8 mL/min/kg. The Vd in [20] was determined as 0.9 L/kg. This compound also showed an AUC at 12 h in [21] of 83 µM·h. Further, the AUC(0-t) at 24 h in data set [22] came out at 70.6 µM·h.
